Data as given in patent publication US20240002374A1, “5-MEMBERED HETEROARYLAMINOSULFONAMIDES FOR TREATING CONDITIONS MEDIATED BY DEFICIENT CFTR ACTIVITY” (Genzyme Corporation, priority 2019, published 2024).

These compounds were tested against T1, CFTR (primary human bronchial epithelial cells from a ΔF508 homozygous CF donor, CF-HBE cells) (Homo sapiens, UniProt P13569, DEL508-508) (assay: TECC24 recording of CFTR-mediated transepithelial chloride transport (TECC24 AUC fold over DMSO @ 3 μM)). Conditions: 3 uM test agent; CF-HBE cells (ΔF508 homozygous) incubated 48 h; ratio of test agent AUC of forskolin-stimulated IEQ to vehicle (DMSO) AUC.
T1 construct: Primary human bronchial epithelial cells from a ΔF508 homozygous CF donor; host or cells: primary human bronchial epithelial cells (CF-HBE) from a ΔF508 homozygous CF donor
Assay type: cell-based
Outline: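 ΔF508-homozygous CF-HBE cells incubated 48 h at 36.5° C with test agent (3 μM) in IL-13-containing medium, then recorded in current clamp with benzamil (10 μM), forskolin (10 μM) and bumetanide (20 μM). AUC of equivalent Cl− current between forskolin and bumetanide expressed as fold over DMSO vehicle.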

T1 sequence (P13569 with tags, fused parts or gaps DEL508-508): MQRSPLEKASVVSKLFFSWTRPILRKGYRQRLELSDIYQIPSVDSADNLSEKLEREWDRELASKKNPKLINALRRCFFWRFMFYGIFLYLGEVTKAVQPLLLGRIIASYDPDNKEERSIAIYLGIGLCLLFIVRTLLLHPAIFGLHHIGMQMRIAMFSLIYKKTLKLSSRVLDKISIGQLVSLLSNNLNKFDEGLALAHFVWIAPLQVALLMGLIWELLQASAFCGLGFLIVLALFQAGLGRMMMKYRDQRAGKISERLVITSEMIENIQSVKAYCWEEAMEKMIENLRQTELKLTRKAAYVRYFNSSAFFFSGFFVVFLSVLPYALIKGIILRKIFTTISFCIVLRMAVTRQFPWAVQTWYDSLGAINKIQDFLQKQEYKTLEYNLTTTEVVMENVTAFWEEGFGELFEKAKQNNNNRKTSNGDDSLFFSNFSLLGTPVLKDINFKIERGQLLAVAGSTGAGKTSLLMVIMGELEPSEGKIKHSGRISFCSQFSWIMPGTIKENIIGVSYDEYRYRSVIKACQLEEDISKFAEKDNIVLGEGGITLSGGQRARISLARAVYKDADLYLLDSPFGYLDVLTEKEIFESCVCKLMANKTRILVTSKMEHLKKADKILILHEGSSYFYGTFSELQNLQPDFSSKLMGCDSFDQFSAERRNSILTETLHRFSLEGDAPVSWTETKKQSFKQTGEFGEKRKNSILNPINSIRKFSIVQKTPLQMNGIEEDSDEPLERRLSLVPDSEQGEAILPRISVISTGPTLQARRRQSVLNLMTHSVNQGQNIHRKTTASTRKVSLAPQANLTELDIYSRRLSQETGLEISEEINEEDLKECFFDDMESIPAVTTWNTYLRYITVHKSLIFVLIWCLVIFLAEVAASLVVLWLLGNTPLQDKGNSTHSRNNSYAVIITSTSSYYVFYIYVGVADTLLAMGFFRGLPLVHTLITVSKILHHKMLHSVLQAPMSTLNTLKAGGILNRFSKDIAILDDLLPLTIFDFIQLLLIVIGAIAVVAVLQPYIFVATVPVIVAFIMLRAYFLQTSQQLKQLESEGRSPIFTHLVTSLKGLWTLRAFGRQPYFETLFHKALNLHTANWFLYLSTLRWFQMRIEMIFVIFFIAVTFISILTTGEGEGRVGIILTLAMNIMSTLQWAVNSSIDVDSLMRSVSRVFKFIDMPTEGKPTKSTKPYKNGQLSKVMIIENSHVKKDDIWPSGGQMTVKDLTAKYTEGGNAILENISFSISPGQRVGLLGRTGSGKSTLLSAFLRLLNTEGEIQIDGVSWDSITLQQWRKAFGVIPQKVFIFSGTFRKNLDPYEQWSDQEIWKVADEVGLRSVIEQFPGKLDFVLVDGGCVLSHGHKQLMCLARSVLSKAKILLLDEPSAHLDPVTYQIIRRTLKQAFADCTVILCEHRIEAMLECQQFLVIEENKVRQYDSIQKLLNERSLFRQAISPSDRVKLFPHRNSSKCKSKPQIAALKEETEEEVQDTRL

SMILES	TECC AUC vs. DMSO @ 3 uM
CC(C)c1ccccc1-c1nc(NS(=O)(=O)c2cccc(N)c2)sc1-c1cccc(OCCC(C)(C)C)c1 [Example 18, 3-Amino-N-(5-(3-(3,3-dimethylbutoxy)phenyl)-4-(2-isopropylphenyl)thiazol-2-yl)benzenesulfonamide]	A (“A” refers to AUC > 5)
CNc1ccc(F)c(S(=O)(=O)Nc2nc(-c3c(C)cccc3C(F)(F)F)c(-c3cccc(OCCC(C)(C)C)c3)s2)c1 [Example 389, N-[5-[3-(3,3-dimethylbutoxy)phenyl]-4-[2-methyl-6-(trifluoromethyl)phenyl]-1,3-thiazol-2-yl]-2-fluoro-5-(methylamino)benzenesulfonamide]	A (“A” refers to AUC > 5)
Cc1cccc(C)c1-c1nc(NS(=O)(=O)c2cccc(N(C)C)n2)sc1-c1cccc(C2CCC(C)(C)C2)c1 (stereo not drawn) [Example 342, 6-(dimethylamino)-N-[5-[3-(3,3-dimethylcyclopentyl)phenyl]-4-(2,6-dimethylphenyl)-1,3-thiazol-2-yl]pyridine-2-sulfonamide]	A (“A” refers to AUC > 5)
CC(C)(C)CCOc1cccc(-c2sc(NS(=O)(=O)c3cccc(N)c3)nc2-c2ccc(C(F)(F)F)cc2)c1 [Example 10, 3-Amino-N-(5-(3-(3,3-dimethylbutoxy)phenyl)-4-(4-(trifluoromethyl)phenyl)thiazol-2-yl)benzenesulfonamide]	A (“A” refers to AUC > 5)
Cc1cccc(C(F)(F)F)c1-c1nc(NS(=O)(=O)c2ccccc2)sc1-c1cc(F)cc(OCCC(C)(C)C)c1 [Example 2, N-(5-(3-(3,3-Dimethylbutoxy)-5-fluorophenyl)-4-(2-methyl-6-(trifluoromethyl)phenyl)thiazol-2-yl)benzenesulfonamide]	A (“A” refers to AUC > 5)
CC(C)Oc1ccccc1-c1nc(NS(=O)(=O)c2ccccc2)sc1-c1cccc(OCC(C)(C)C)c1 [Example 4, N-(4-(2-Isopropoxyphenyl)-5-(3-(neopentyloxy)phenyl)thiazol-2-yl)benzenesulfonamide]	B (“B” refers to AUC 2-5)
Cc1nn(C)cc1S(=O)(=O)Nc1nc(-c2ccccc2C(F)(F)F)c(-c2cccc([C@@H]3CC[C@@H](OC(F)(F)F)C3)c2)s1 (single isomer, unassigned) [Example 45B2]	C (“C” refers to AUC < 2)
CC(C)(C)CCOc1cc(F)cc(-c2sc(NS(=O)(=O)c3cccc(N)c3)nc2-c2ccc(C(F)(F)F)cc2)c1 [Example 9, 3-Amino-N-(5-(3-(3,3-dimethylbutoxy)-5-fluorophenyl)-4-(4-(trifluoromethyl)phenyl)thiazol-2-yl)benzenesulfonamide]	B (“B” refers to AUC 2-5)
Cc1cccc(C(F)(F)F)c1-c1nc(NS(=O)(=O)c2cccc(N)n2)sc1-c1cc(F)cc(OCCC(C)(C)C)c1 [Example 312, 6-amino-N-[5-[3-(3,3-dimethylbutoxy)-5-fluorophenyl]-4-[2-methyl-6-(trifluoromethyl)phenyl]-1,3-thiazol-2-yl]pyridine-2-sulfonamide]	A (“A” refers to AUC > 5)
CC(C)c1ccccc1-c1nc(NS(=O)(=O)c2cccc(N[C@H](C)C(F)(F)F)c2)sc1-c1cccc(OCC(C)(C)C)c1 [Example 429, N-[5-[3-(2,2-dimethylpropoxy)phenyl]-4-(2-propan-2-ylphenyl)-1,3-thiazol-2-yl]-3-[[(2R)-1,1,1-trifluoropropan-2-yl]amino]benzenesulfonamide]	A (“A” refers to AUC > 5)
Cc1nn(C)cc1S(=O)(=O)Nc1nc(-c2ccccc2C(F)(F)F)c(-c2cccc([C@H]3CC[C@@H](OC(F)(F)F)C3)c2)s1 (single isomer, unassigned) [Example 45A1]	B (“B” refers to AUC 2-5)
CC(Oc1cc(F)ccc1-c1nc(NS(=O)(=O)c2ccn(C)n2)sc1-c1cc(F)cc(OCCC(C)(C)C)c1)C(F)(F)F (stereo not drawn) [Example 5, N-(5-(3-(3,3-Dimethylbutoxy)-5-fluorophenyl)-4-(4-fluoro-2-((1,1,1-trifluoropropan-2-yl)oxy)phenyl)thiazol-2-yl)-1-methyl-1H-pyrazole-3-sulfonamide]	B (“B” refers to AUC 2-5)
CC(C)c1ccccc1-c1nc(NS(=O)(=O)c2cccc(N)c2F)sc1-c1cccc([C@@H]2CC[C@H](OC(F)(F)F)C2)c1 [Example 48B1, 3-Amino-2-fluoro-N-(4-(2-isopropylphenyl)-5-(3-((1R,3S)-3-(trifluoromethoxy)cyclopentyl)phenyl)thiazol-2-yl)benzenesulfonamide]	B (“B” refers to AUC 2-5)
CC(C)Oc1cc(Cl)ccc1-c1nc(NS(=O)(=O)c2ccccc2)sc1-c1ccc(OC(F)F)c(OCCC(C)(C)C)c1 [Example 380, N-[4-(4-chloro-2-propan-2-yloxyphenyl)-5-[4-(difluoromethoxy)-3-(3,3-dimethylbutoxy)phenyl]-1,3-thiazol-2-yl]benzenesulfonamide]	A (“A” refers to AUC > 5)
Cc1nn(C)cc1S(=O)(=O)Nc1nc(-c2ccccc2C(F)(F)F)c(-c2cccc([C@@H]3CC[C@H](OC(F)(F)F)C3)c2)s1 (single isomer, unassigned) [Example 45B1]	A (“A” refers to AUC > 5)
Nc1cccc(S(=O)(=O)Nc2nc(-c3ccccc3C(F)(F)F)c(-c3cccc([C@@H]4CC[C@@H](OC(F)(F)F)C4)c3)s2)c1F [Example 47B2, 3-Amino-2-fluoro-N-(5-(3-((1R,3R)-3-(trifluoromethoxy)cyclopentyl)phenyl)-4-(2-(trifluoromethyl)phenyl)thiazol-2-yl)benzenesulfonamide]	C (“C” refers to AUC < 2)
CC(C)(C)CCOc1cccc(-c2sc(NS(=O)(=O)c3cccc(NC(=O)C4CC4)c3)nc2-c2ccccc2C(F)(F)F)c1 [Example 19, N-(3-(N-(5-(3-(3,3-Dimethylbutoxy)phenyl)-4-(2-(trifluoromethyl)phenyl)thiazol-2-yl)sulfamoyl)phenyl)cyclopropanecarboxamide]	A (“A” refers to AUC > 5)
CC(C)Oc1cc(Cl)ccc1-c1nc(NS(=O)(=O)c2cccc(N)c2F)sc1-c1cccc(OCC(F)(F)C(C)(C)C)c1 [Example 382]	A (“A” refers to AUC > 5)
CC(C)c1ccccc1-c1nc(NS(=O)(=O)c2cccc(N[C@H](C(=O)O)C(C)(C)C)n2)sc1-c1cccc(OCCC(C)(C)C)c1 [Example 36, (S)-2-((6-(N-(5-(3-(3,3-Dimethylbutoxy)phenyl)-4-(2-isopropylphenyl)thiazol-2-yl)sulfamoyl)pyridin-2-yl)amino)-3,3-dimethylbutanoic Acid]	A (“A” refers to AUC > 5)
Cc1cccc(C(F)(F)F)c1-c1nc(NS(=O)(=O)c2ccnc(N)c2)sc1-c1cc(F)cc(OCCC(C)(C)C)c1 [Example 15, 2-Amino-N-(5-(3-(3,3-dimethylbutoxy)-5-fluorophenyl)-4-(2-methyl-6-(trifluoromethyl)phenyl)thiazol-2-yl)pyridine-4-sulfonamide]	A (“A” refers to AUC > 5)
Cc1nn(C)cc1S(=O)(=O)Nc1nc(-c2ccccc2C(F)(F)F)c(-c2cccc([C@H]3CC[C@H](OC(F)(F)F)C3)c2)s1 (single isomer, unassigned) [Example 45A2]	B (“B” refers to AUC 2-5)
